Values joined by “and” are separate entries in the source; they are usually repeats but may differ in a detail not shown here. Equal values may be shown once.
Experiments:
[1] = Pharmacokinetic testing in rats (IV or PO); assay type: in vivo; conditions: rat
Description: Examples 1A, 2A, 4A, 12A, and 14A were tested in rats to assess pharmacokinetic parameters including maximum concentration (Cmax), area under the plasma concentration time curve (AUC), clearance (CL), steady state volume of distribution (Vss), half life (t1/2), and bioavailability (F). Male Sprague Dawley rats (˜300 g) were used. Rats received compound by intravenous (IV) or oral gavage (PO) administration and the doses tested including vehicle to formulate dosing solutions are listed in Table 5.
Following IV or PO administration, 0.2 mL blood was sampled from the jugular vein at various timepoints (Table 5). Twenty microL aliquots of plasma samples and standards were subjected to protein precipitation with acetonitrile containing an internal standard. Samples were vortexed and centrifuged to obtain supernatant which was analyzed by LC-MS/MS. Analyst (Version 1.4.1) was used to measure peak areas and peak area ratios of analyte to internal standard were calculated. LC-MS/MS conditions are as follows: Mass Spectrometer+Source Type was Sciex API 4000−Turbo Spray; HPLC pump was Shimadzu; Autosampler was CTC PAL Autosampler; Injection volume was 3.0 to 10 microL; A gradient was used with mobile phase A: 10 mM ammonium acetate and 1% Isopropyl alcohol in water; B: Acetonitrile; Flowrate 0.300 mL per minute (Column 2.0×30 mm 5 microm LUNA C18 column (phenomenex)). Detection mode was negative.
A calibration curve was constructed from the peak area ratios of the standards to the internal standard by applying a weighted linear (1/x or 1/x2) regression. The dynamic range of the standard curve was 5.00 ng/mL to 5000 ng/mL.
Pharmacokinetic parameters were determined from individual animal data using non-compartmental analysis in Watson (version 7.2). Concentrations below the limit of quantitation (BLQ) were recorded as 0 ng/mL for use in calculations.
The following calculations were used: AUC(0−τ)=Determined using the linear trapezoidal method AUC(0−□)=AUC(0−τ) plus extrapolated area determined by dividing plasma concentration at τ by the slope of the terminal log-linear phase CL=Dose/AUC(0−∞) Vdss=CL×MRT Cmax=Recorded directly from plasma concentration time curve Tmax=Recorded directly from plasma concentration time curve t½=ln(0.5)/slope of the terminal log-linear phase F %=AUC(0−∞)PO per dose/AUC(0−∞)IV per dose C(0)=Extrapolated by linear regression from the apparent distribution phase following IV administration MRT=AUMC(AUC(0−∞)/AUC(0−∞)

[2] = molecular target: T1, human SGLT2 (Homo sapiens, UniProt P31639); experiment: SGLT2 functional assay: inhibition of AMG uptake in CHO-FlpIn cells stably expressing human SGLT2; assay type: cell-based; conditions: individual runs (Run No.), read-out: hSGLT2 IC50
T1 construct: expressed in transfected cells; host or cells: CHO-FlpIn (Invitrogen)
T1 sequence (P31639 1-672): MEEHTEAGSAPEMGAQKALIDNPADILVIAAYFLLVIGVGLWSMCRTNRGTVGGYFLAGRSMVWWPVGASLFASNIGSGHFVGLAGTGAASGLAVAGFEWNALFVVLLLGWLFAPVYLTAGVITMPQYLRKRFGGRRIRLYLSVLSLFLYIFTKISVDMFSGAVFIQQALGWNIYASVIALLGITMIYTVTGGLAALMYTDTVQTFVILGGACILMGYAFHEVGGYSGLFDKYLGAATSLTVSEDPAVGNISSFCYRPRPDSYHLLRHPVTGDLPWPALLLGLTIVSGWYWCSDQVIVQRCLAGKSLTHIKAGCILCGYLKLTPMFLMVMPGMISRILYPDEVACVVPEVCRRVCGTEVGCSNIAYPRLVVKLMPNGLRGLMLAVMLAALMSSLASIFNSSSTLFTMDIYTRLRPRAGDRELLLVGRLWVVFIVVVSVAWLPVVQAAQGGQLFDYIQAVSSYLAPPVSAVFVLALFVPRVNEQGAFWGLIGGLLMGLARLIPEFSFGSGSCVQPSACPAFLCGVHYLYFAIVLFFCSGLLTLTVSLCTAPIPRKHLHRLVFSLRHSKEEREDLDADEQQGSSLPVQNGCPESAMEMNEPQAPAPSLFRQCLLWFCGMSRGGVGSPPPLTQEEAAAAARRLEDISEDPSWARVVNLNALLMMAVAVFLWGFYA
Excerpt: The SGLT2 functional assay was designed to detect the inhibition of methyl-alpha-D glucopyranoside (AMG—a non-metabolizable form of glucose) uptake via the SGLT2 transporter. The SGLT2 transporter recovers glucose from the proximal tubules of the kidney; its inhibition results in sugar wasted in the urine. The positive control compound, Phlorizin, is a known inhibitor of glucose uptake for SGLT2 and was used for comparing the high percent effect of SGLT2 inhibition of the test compounds.
CHO-FlpIn (Invitrogen, Carlsbad, Calif.) cells stably expressing human SGLT2 (pcDNA5/FRT) were plated in Iso-TC 96 well plates (Perkin Elmer, Waltham, Mass.) at a density of 100,000 cells/well in 100 microL of growth media (1:1 F-12/DMEM media (Gibco, Carlsbad, Calif.), 10% FBS (Sigma, St. Louis Mo.), 1× Pen/Strep (Gibco, Carlsbad, Calif.), 600 microg/mL Hygromycin (Invitrogen, Carlsbad, Calif.)). Prior to treating with test compound, confluent cells were serum starved for 2 hours at 37° C. in 1:1 F-12/DMEM media, replacing with fresh F-12/DMEM media after 1 hour. […] Cell plates were then incubated for 3 hours at 37° C. for AMG uptake.

[3] = molecular target: T2, hSGLT1 (Homo sapiens, UniProt P13866); experiment: SGLT1 functional assay: hSGLT1 IC50 (selectivity counter-screen to the SGLT2 AMG uptake assay); assay type: cell-based; conditions: individual runs (Run No.)
T2 sequence (P13866 1-664): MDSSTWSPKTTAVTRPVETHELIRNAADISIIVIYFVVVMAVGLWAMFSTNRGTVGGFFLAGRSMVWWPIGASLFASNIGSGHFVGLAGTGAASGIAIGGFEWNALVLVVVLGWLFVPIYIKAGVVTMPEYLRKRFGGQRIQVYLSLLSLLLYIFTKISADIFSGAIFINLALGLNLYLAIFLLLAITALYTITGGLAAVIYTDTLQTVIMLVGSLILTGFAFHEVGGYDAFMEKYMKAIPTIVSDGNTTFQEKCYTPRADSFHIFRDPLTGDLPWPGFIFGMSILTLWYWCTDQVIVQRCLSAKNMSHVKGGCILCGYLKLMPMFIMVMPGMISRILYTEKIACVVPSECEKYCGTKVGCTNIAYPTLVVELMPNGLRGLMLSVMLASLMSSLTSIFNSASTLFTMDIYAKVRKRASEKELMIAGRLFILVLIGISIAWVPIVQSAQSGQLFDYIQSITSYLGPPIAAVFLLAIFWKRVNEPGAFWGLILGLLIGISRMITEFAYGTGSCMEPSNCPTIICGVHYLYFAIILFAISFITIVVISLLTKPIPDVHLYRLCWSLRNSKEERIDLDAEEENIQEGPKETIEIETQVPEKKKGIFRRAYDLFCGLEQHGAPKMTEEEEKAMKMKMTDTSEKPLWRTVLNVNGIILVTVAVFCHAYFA

[4] = male, Sprague Dawley, plasma, IV, 2 mg/kg
[5] = male, Sprague Dawley, plasma, PO, 10 mg/kg, PEG200/0.5% MC

## OC[C@@]12CO[C@@](c3ccc(Cl)c(Cc4ccc(OC5COC5)cc4)c3)(O1)[C@H](O)[C@@H](O)[C@@H]2O [Example 14A, (1S,2S,3S,4R,5S)-5-{4-chloro-3-[4-(oxetan-3-yloxy)-benzyl]-phenyl}-1-hydroxymethyl-6,8-dioxa-bicyclo[3.2.1]octane-2,3,4-triol]
[1]; [4]
  AUC(0-inf): 1060 ng·h/mL
  clearance: 31.7 mL/min/kg
  half-life: 1.36 h
[1]; male, Sprague Dawley, plasma, IV, 2 mg/kg, read-out: Vss
  Vd: 1.69 L/kg
[1]; [5]
  AUC(0-inf): 2290 ng·h/mL
  Cmax: 551 ng/mL
  half-life: 1.71 h
[1]; PO, 10 mg/kg, PEG200/0.5% MC
  F: 43.5%
[2]
  IC50: 2.28 nM and 3.12 nM and 2.39 nM and 2.87 nM
[3]
  IC50: > 10000 nM
